According to ChEMBL document CHEMBL1134524, “Utilization of an intramolecular hydrogen bond to increase the CNS penetration of an NK(1) receptor antagonist” (J Med Chem, 2001):

test system: Meriones unguiculatus; test: Minimal effective dose to antagonize the foot tapping response when administered subcutaneously (0.1-10 mg/kg) in gerbil; details: sc, read-out: MED

Row | SMILES | minimal effective dose [mg/kg]
1 | C[C@H](NC(=O)[C@](Cc1c[nH]c2ccccc12)(CN(C)C)NC(=O)OCc1cc2ccccc2o1)c1ccccc1 | 1

target: Substance-P receptor (Homo sapiens, UniProt P25103); test: Inhibition of specific binding at tachykinin receptor 1; details: not given
Sequence (P25103 whole entry): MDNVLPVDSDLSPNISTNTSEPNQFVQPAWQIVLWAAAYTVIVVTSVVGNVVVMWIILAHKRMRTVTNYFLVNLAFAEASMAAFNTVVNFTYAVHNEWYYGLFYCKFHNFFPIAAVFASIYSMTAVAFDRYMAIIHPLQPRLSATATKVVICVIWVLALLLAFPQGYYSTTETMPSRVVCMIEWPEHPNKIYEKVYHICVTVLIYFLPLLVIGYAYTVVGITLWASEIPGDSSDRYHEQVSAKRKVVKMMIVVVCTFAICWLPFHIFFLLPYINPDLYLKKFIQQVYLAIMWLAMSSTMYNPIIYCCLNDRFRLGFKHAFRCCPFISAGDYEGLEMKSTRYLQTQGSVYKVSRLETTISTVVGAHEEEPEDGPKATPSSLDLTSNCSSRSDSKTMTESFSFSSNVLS

Row | SMILES | IC50 [nM]
2 | CC(C)C[C@](Cc1c[nH]c2ccccc12)(NC(=O)OCc1cc2ccccc2o1)C(=O)N[C@@H](C)c1ccccc1 | 3.79
3 | CCC[C@](Cc1c[nH]c2ccccc12)(NC(=O)OCc1cc2ccccc2o1)C(=O)N[C@@H](C)c1ccccc1 | 0.85
4 | CC[C@](Cc1c[nH]c2ccccc12)(NC(=O)OCc1cc2ccccc2o1)C(=O)N[C@@H](C)c1ccccc1 | 0.96

Compounds with a lower IC50, results first:

Row | IC50 [nM] | SMILES
5 | 0.7 | COC[C@](Cc1c[nH]c2ccccc12)(NC(=O)OCc1cc2ccccc2o1)C(=O)N[C@@H](C)c1ccccc1
6 | 0.46 | C[C@H](NC(=O)[C@](Cc1c[nH]c2ccccc12)(CN(C)C)NC(=O)OCc1cc2ccccc2o1)c1ccccc1
7 | 0.73 | C[C@H](NC(=O)[C@@H](Cc1c[nH]c2ccccc12)NC(=O)OCc1cc2ccccc2o1)c1ccccc1
